What was measured:
[1] = molecular target: CDKL5 (Homo sapiens, UniProt O76039); test: SelectScreen kinase profiling, ZLYTE; format: biochemical; conditions: CDKL5, 10 µM
[2] = molecular target: JAK2 (Homo sapiens, UniProt O60674); test: SelectScreen kinase profiling, ZLYTE; format: biochemical; conditions: JAK2, 10 µM
[3] = molecular target: RET V804M (Homo sapiens, UniProt P07949, V804M); test: SelectScreen kinase profiling, LanthaScreen binding
[4] = molecular target: PIK3CA E542K/PIK3R1 (p110 alpha E542K/p85 alpha) (Homo sapiens, UniProt P42336, E542K); test: SelectScreen kinase profiling, Adapta; format: biochemical; conditions: PIK3CA E542K/PIK3R1, 10 µM
Chain of PIK3CA E542K/PIK3R1 (p110 alpha E542K/p85 alpha) (P42336 whole entry E542K): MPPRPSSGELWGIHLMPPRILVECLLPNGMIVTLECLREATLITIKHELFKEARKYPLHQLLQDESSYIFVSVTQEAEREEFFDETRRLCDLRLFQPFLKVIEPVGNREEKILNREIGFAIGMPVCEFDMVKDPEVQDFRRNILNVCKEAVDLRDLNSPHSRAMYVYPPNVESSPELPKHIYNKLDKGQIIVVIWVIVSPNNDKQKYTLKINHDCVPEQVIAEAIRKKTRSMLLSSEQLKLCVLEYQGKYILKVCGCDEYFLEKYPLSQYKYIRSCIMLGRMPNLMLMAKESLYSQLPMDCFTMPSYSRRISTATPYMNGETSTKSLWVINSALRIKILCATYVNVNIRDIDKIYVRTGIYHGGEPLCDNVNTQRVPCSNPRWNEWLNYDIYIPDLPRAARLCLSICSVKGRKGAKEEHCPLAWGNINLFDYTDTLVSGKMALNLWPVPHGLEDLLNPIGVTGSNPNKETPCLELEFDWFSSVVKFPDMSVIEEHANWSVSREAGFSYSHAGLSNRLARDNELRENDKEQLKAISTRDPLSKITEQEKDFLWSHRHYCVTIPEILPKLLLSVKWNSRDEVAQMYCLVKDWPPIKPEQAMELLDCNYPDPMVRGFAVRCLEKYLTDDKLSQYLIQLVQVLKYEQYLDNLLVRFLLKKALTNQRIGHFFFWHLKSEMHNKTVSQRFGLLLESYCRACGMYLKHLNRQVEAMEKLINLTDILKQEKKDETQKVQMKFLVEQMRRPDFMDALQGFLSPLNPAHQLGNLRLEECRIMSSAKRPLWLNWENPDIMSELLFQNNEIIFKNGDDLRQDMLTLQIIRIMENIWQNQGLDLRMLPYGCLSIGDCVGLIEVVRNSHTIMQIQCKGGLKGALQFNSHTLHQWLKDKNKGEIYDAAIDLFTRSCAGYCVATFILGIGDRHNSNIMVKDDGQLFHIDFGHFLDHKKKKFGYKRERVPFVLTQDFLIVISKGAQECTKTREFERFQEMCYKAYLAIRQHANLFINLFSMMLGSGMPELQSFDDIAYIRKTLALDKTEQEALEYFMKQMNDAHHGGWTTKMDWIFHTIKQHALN
Chain of PIK3CA E542K/PIK3R1 (p110 alpha E542K/p85 alpha) (P27986 whole entry partner): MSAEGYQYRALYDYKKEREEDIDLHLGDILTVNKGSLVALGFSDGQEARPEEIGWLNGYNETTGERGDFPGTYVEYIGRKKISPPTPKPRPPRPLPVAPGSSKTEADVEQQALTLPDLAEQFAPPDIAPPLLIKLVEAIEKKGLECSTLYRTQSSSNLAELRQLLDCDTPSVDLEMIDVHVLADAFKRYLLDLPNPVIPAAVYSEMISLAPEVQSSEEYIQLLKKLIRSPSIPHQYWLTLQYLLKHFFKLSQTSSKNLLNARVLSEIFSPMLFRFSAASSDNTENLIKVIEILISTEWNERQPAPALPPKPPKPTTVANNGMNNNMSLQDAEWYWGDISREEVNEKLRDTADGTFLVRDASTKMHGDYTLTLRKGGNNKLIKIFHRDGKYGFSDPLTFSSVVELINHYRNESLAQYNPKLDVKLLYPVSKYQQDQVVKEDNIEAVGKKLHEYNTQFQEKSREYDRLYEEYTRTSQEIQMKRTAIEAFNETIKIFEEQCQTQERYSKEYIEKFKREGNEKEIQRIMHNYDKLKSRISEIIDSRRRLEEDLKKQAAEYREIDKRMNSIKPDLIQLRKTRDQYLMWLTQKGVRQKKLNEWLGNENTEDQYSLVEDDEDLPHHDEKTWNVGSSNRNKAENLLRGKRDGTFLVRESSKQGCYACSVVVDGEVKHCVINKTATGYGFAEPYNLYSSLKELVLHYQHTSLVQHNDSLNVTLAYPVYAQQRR

[5] = molecular target: DYRK1B (Homo sapiens, UniProt Q9Y463); test: SelectScreen kinase profiling, ZLYTE; format: biochemical
[6] = molecular target: PDK1 Direct (Homo sapiens, UniProt O15530); test: SelectScreen kinase profiling, ZLYTE; format: biochemical
Chain of PDK1 Direct (O15530 whole entry): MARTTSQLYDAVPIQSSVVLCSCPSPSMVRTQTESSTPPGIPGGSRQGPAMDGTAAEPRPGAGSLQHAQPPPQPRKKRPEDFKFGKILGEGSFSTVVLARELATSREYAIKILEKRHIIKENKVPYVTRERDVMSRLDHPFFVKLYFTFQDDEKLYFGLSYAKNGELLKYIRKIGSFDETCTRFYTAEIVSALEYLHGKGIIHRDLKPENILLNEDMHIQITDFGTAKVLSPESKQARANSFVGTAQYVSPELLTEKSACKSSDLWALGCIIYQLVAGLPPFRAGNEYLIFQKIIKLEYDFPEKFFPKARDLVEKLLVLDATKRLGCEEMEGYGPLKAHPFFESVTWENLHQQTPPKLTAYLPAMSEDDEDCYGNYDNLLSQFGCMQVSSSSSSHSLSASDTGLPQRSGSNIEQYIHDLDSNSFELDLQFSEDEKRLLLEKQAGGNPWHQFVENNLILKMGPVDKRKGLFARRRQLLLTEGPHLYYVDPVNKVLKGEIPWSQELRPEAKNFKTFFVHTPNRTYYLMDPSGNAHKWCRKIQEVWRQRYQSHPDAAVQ

[7] = molecular target: ABL1 G250E (Homo sapiens, UniProt P00519, G250E); test: SelectScreen kinase profiling, ZLYTE; format: biochemical
[8] = molecular target: PASK (Homo sapiens, UniProt Q96RG2); test: SelectScreen kinase profiling, ZLYTE; format: biochemical
[9] = molecular target: MET M1250T (Homo sapiens, UniProt P08581, M1250T); test: SelectScreen kinase profiling, ZLYTE; format: biochemical
[10] = molecular target: CDK1/cyclin B (Homo sapiens, UniProt P06493); test: SelectScreen kinase profiling, ZLYTE; format: biochemical
[11] = molecular target: SGK (SGK1) (Homo sapiens, UniProt O00141); test: SelectScreen kinase profiling, ZLYTE; format: biochemical
[12] = molecular target: RIPK3 (Homo sapiens, UniProt Q9Y572); test: SelectScreen kinase profiling, LanthaScreen binding; conditions: RIPK3, 10 µM
[13] = molecular target: AKT1 (PKB alpha) (Homo sapiens, UniProt P31749); test: SelectScreen kinase profiling, ZLYTE; format: biochemical
[14] = molecular target: RPS6KA6 (RSK4) (Homo sapiens, UniProt Q9UK32); test: SelectScreen kinase profiling, ZLYTE; format: biochemical
[15] = molecular target: PRKCI (PKC iota) (Homo sapiens, UniProt P41743); test: SelectScreen kinase profiling, ZLYTE; format: biochemical
[16] = molecular target: ICK (Homo sapiens, UniProt Q9UPZ9); test: SelectScreen kinase profiling, LanthaScreen binding
[17] = molecular target: FGFR1 (Homo sapiens, UniProt P11362); test: SelectScreen kinase profiling, ZLYTE; format: biochemical; conditions: FGFR1, 10 µM
[18] = molecular target: AURKC (Aurora C) (Homo sapiens, UniProt Q9UQB9); test: SelectScreen kinase profiling, ZLYTE; format: biochemical
[19] = molecular target: CLK3 (Homo sapiens, UniProt P49761); test: SelectScreen kinase profiling, ZLYTE; format: biochemical; conditions: CLK3, 10 µM
[20] = molecular target: P450 1A2 (Homo sapiens, UniProt P05177); test: SelectScreen P450 Vivid biochemical assay; conditions: 10000nM; substrate EOMCC
[21] = molecular target: PDGFRB (PDGFR beta) (Homo sapiens, UniProt P09619); test: SelectScreen kinase profiling, ZLYTE; format: biochemical
[22] = molecular target: DNA-PK (Homo sapiens, UniProt P78527); test: SelectScreen kinase profiling, ZLYTE; format: biochemical
[23] = molecular target: FGFR4 (Homo sapiens, UniProt P22455); test: SelectScreen kinase profiling, ZLYTE; format: biochemical; conditions: FGFR4, 10 µM
[24] = molecular target: RPS6KA1 (RSK1) (Homo sapiens, UniProt Q15418); test: SelectScreen kinase profiling, ZLYTE; format: biochemical
Chain of RPS6KA1 (RSK1) (Q15418 whole entry): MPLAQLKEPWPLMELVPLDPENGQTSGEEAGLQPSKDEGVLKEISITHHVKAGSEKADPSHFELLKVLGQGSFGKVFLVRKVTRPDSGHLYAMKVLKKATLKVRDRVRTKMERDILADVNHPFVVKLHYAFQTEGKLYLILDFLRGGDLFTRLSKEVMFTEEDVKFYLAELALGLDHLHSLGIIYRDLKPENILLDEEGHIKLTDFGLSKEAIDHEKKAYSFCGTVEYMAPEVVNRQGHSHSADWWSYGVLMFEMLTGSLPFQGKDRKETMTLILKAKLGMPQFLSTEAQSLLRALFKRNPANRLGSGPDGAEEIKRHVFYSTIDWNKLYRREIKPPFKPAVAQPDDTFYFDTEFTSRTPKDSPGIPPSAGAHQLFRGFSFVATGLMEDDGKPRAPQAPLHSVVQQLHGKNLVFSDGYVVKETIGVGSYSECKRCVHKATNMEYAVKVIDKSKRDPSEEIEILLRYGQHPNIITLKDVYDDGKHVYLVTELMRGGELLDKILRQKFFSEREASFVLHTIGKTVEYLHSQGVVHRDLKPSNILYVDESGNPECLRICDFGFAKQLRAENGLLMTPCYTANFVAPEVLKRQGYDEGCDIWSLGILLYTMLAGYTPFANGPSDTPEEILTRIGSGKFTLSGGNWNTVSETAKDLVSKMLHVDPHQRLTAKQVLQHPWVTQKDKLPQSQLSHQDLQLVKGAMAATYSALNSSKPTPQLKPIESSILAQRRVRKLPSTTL

[25] = molecular target: JAK3 (Homo sapiens, UniProt P52333); test: SelectScreen kinase profiling, ZLYTE; format: biochemical; conditions: JAK3, 10 µM
[26] = molecular target: SNF1LK2 (Homo sapiens, UniProt Q9H0K1); test: SelectScreen kinase profiling, ZLYTE; format: biochemical; conditions: SNF1LK2, 10 µM
[27] = molecular target: CDK6/cyclin D1 (Homo sapiens, UniProt Q00534); test: SelectScreen kinase profiling, Adapta; format: biochemical; conditions: CDK6/cyclin D1, 10 µM
[28] = molecular target: GAK (Homo sapiens, UniProt O14976); test: SelectScreen kinase profiling, LanthaScreen binding
[29] = molecular target: MAP2K2 (MEK2) (Homo sapiens, UniProt P36507); test: SelectScreen kinase profiling, ZLYTE; format: biochemical
[30] = molecular target: MAPK15 (ERK7) (Homo sapiens, UniProt Q8TD08); test: SelectScreen kinase profiling, LanthaScreen binding
[31] = molecular target: PIK3CA/PIK3R3 (p110 alpha/p55 gamma) (Homo sapiens, UniProt P42336); test: SelectScreen kinase profiling, Adapta; format: biochemical; conditions: PIK3CA/PIK3R3, 10 µM
[32] = molecular target: MAPKAPK5 (PRAK) (Homo sapiens, UniProt Q8IW41); test: SelectScreen kinase profiling, ZLYTE; format: biochemical
Chain of MAPKAPK5 (PRAK) (Q8IW41 whole entry): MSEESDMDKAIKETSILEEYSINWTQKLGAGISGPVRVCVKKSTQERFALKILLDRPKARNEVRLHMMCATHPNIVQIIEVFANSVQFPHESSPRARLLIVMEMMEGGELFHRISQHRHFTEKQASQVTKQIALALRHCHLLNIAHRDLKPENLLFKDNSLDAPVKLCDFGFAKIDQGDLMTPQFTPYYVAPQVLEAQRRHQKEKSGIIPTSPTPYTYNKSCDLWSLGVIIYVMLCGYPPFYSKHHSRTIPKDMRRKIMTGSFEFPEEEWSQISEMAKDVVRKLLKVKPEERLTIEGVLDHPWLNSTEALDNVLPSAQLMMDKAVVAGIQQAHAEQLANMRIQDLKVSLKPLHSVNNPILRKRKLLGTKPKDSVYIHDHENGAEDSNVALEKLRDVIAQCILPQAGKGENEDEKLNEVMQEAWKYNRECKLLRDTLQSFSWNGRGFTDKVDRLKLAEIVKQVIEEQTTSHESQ

[33] = molecular target: PAK6 (Homo sapiens, UniProt Q9NQU5); test: SelectScreen kinase profiling, ZLYTE; format: biochemical; conditions: PAK6, 10 µM
[34] = molecular target: BRAF V599E (Homo sapiens, UniProt P15056, V600E); test: SelectScreen kinase profiling, LanthaScreen binding
Chain of BRAF V599E (P15056 416-766 V600E limits assumed): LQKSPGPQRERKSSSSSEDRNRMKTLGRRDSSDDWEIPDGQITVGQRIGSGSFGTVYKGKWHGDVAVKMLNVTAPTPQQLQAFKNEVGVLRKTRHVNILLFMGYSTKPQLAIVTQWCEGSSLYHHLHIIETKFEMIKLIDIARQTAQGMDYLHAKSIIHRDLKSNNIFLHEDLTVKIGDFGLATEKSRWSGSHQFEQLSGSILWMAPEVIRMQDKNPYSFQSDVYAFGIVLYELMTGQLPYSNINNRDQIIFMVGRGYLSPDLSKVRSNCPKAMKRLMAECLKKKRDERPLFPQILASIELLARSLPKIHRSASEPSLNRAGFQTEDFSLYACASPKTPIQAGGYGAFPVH

[35] = molecular target: LRRK2 I2020T (Homo sapiens, UniProt Q5S007, I2020T); test: SelectScreen kinase profiling, Adapta; format: biochemical
[36] = molecular target: FRAP1 (mTOR) (Homo sapiens, UniProt P42345); test: SelectScreen kinase profiling, ZLYTE; format: biochemical
[37] = molecular target: ACVR2B (Homo sapiens, UniProt Q13705); test: SelectScreen kinase profiling, LanthaScreen binding
[38] = molecular target: ABL1 M351T (Homo sapiens, UniProt P00519, M351T); test: as above
[39] = molecular target: GRK1 (Homo sapiens, UniProt Q15835); test: as above; conditions: GRK1, 10 µM

Chain of JAK2 (O60674 whole entry): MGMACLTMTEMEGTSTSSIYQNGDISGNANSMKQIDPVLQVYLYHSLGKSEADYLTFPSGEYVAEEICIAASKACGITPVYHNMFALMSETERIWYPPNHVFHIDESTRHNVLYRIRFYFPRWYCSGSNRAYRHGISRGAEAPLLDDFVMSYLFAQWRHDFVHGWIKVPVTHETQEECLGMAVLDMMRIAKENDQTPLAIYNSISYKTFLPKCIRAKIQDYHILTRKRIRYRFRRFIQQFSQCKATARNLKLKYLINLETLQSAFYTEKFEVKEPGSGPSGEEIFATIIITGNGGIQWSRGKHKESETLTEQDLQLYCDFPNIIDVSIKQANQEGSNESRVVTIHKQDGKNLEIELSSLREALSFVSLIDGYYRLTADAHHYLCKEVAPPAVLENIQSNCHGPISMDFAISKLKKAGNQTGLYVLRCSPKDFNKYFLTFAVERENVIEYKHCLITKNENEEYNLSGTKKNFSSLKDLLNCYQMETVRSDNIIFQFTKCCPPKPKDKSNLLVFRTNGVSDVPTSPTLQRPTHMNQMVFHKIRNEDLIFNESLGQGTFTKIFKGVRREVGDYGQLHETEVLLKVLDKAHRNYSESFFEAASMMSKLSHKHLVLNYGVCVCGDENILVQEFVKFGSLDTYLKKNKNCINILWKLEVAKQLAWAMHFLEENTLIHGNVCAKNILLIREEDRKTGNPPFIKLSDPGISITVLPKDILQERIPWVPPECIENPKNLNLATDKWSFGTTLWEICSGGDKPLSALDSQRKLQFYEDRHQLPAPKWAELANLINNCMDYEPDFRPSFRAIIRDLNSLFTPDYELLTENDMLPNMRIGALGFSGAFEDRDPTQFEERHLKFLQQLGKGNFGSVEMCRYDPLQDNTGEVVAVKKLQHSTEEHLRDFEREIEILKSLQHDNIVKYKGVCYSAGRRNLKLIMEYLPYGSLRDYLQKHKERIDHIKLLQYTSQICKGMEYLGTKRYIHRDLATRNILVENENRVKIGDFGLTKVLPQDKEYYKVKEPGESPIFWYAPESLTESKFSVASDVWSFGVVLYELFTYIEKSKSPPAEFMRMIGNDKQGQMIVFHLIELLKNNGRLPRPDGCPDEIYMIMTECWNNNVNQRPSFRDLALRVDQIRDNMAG

`O=C(c1ccc(/C=C/c2n[nH]c3ccccc23)cc1)N1CCNCC1` [KW-2449] gave an inhibition at 10 µM [1] of 56%, an inhibition at 10 µM [2] of 98% and an inhibition at 10 µM [3] of -5%. For the same compound, the inhibition at 10 µM [4] was 13%, the inhibition at 10 µM [5] was 91% and the inhibition at 10 µM [6] was 103%. For the same compound, the inhibition at 10 µM [7] was 100%, the inhibition at 10 µM [8] was 10% and the inhibition at 10 µM [9] was 96%. The inhibition at 10 µM [10] was 88%, the inhibition at 10 µM [11] was 98% and the inhibition at 10 µM [12] was 18%. The inhibition at 10 µM [13] was 24%, the inhibition at 10 µM [14] was 97% and the inhibition at 10 µM [15] was 7%. It also gave an inhibition at 10 µM [16] of 74%, an inhibition at 10 µM [17] of 96% and an inhibition at 10 µM [18] of 98%. The inhibition at 10 µM [19] was 66%, the “% Inhibition 1A2 EOMCC” value [20] was -3% and the inhibition at 10 µM [21] was 76%. For the same compound, the inhibition at 10 µM [22] was 24%, the inhibition at 10 µM [23] was 70% and the inhibition at 10 µM [24] was 94%. For the same compound, the inhibition at 10 µM [25] was 98%, the inhibition at 10 µM [26] was 97% and the inhibition at 10 µM [27] was 82%. It also gave an inhibition at 10 µM [28] of 67%, an inhibition at 10 µM [29] of 75% and an inhibition at 10 µM [30] of -49%. For the same compound, the inhibition at 10 µM [31] was 4%, the inhibition at 10 µM [32] was 87% and the inhibition at 10 µM [33] was 60%. It also gave an inhibition at 10 µM [34] of 6%, an inhibition at 10 µM [35] of 100% and an inhibition at 10 µM [36] of 9%. It also gave an inhibition at 10 µM [37] of 94%, an inhibition at 10 µM [38] of 52% and an inhibition at 10 µM [39] of 25%.

Source: paper PMC6540285, “Evaluation of Protein Kinase Inhibitors with PLK4 Cross-Over Potential in a Pre-Clinical Model of Cancer” (International Journal of Molecular Sciences, 2019)
